Test results taken from patent US7575882B2, “Compositions and methods for identifying modulators of TRPV2” (Janssen Pharmaceutica N. V., priority 2005, dated 2009).

Target: T1, co-expressed TRPV2 chimeras RRH and HRR (Rattus norvegicus, UniProt Q9WUD2)
T1 construct: expressed in transfected cells; host or cells: HEK293, transient co-expression, pCI-neo
T1 sequence (Q9WUD2 with tags, fused parts or gaps H651S/D654T/N655D/DEL680-680/H683Q/E685A/R687V/L688M/K690T/R694K/G695P/T698S/A714S/K717Q/S723C): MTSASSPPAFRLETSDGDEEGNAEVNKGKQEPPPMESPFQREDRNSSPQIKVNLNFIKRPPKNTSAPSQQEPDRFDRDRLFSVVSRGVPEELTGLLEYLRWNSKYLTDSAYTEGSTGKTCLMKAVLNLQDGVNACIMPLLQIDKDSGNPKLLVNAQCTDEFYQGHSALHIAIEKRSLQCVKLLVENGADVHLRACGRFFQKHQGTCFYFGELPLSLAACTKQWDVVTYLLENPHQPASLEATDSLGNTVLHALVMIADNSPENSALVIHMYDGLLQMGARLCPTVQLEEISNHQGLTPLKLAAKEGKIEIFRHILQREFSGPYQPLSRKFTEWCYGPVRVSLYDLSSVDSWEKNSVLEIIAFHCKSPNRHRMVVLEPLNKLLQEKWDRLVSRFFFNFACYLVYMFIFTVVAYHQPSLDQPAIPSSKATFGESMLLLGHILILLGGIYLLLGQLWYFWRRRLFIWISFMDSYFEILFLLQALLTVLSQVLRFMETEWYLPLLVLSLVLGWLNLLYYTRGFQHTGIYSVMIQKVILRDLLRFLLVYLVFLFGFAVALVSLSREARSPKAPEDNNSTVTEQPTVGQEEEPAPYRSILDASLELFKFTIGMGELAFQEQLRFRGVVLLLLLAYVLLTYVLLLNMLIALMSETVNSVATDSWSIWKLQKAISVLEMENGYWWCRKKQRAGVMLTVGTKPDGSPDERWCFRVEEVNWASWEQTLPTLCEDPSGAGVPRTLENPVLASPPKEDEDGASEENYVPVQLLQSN
T1 sequence (Q9WUD2 with tags, fused parts or gaps P38Q/R41G/N45K/S46F/S47A/K51R/DEL56-59/P60Y/P61R/N63G/S65G/DEL67-67/Q70P/E71D/D73N/S82N/V83A/E91D/T93A/L96P/R100S/W101K/N102T/A110E/Q129K/M137L/K144R/K150Q/L151P/E160D/F161Y/Q163R/D189N/L192A/H202G/T227S/E240Q/L245Q/A257S/P261A/S264I/I268T/H269S/M277A/E289D/S291R/H293L/G295D/DEL322-322/Y323L/Q324S/P325H/S346A/W351C/K353E/N368H/E384A/R388L/V390I/S391P/R392K): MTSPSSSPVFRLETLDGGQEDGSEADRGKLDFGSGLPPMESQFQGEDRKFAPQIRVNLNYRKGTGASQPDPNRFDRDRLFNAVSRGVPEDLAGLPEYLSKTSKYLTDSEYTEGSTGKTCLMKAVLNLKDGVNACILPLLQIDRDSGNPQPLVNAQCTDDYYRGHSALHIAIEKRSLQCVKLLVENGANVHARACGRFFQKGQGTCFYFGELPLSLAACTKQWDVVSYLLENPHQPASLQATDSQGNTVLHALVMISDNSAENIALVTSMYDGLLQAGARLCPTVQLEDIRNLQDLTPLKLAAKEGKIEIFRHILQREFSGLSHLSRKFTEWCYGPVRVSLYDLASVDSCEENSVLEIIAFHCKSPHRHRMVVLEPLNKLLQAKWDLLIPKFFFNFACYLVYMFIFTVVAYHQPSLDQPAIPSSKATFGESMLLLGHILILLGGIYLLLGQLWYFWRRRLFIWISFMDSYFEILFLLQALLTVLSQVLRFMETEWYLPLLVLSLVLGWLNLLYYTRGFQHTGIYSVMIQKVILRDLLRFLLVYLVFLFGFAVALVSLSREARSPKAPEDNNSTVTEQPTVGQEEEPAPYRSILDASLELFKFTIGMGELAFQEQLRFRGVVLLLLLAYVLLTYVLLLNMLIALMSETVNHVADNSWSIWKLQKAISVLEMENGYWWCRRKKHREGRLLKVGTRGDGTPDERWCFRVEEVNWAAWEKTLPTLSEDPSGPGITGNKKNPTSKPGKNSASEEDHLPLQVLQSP
Test: Calcium mobilization in HEK293 cells co-expressing TRPV2 chimeras RRH and HRR
Format: cell-based, rat/human
Settings: co-expression in HEK cells
Method: The deletion mutant constructs were then transfected into HEK293 cells using Fugene 6 reagent (Roche) as per the manufacturer's instructions. At 24 hours post-transfection, the cells were harvested and replated in fresh DMEM medium supplemented with 10% fetal bovine serum, 100 units/ml penicillin, and 100 μg/ml streptomycin. The cells were distributed onto poly-D-Lysine coated 96-or 384-well plates at a density of approximately 40,000 and 10,000 cells per well, respectively. At approximately 48 hours post-transfection, the medium was removed from the assay plate and replaced with Calcium 3 Dye Buffer (Molecular Devices) using the protocol available from the manufacturer. Calcium mobilization was triggered using Δ^9-THC or 2-APB or elevated temperature buffer and measured using either FLIPR or FLEX STATION instruments.
Based on the predicted topology and primary sequence features of TRPV2, TRPV2 are divided into 3 major domains: 1) the amino-terminal intracellular domain; 2) the transmembrane domain; and 3) the carboxyl-terminal intracellular domain. For a chimera, each domain can be of rat (R) or human (H) origin. Three rat and human TRPV2 chimera were constructed and tested herein. RRH (SEQ ID NO:15) was a chimera comprising rat 1-392 aa, rat 393-646 aa, and human 647-764 aa. RHR (SEQ ID NO:16) was a chimera comprising rat 1-392, human 391-646, and rat 647-761. […]

Delta-9-tetrahydrocannabinol [Δ^9-THC]
response of cells co-expressing both chimeras to the compound: fully responsive
